# Laboratory results: patent US20080031931A1, “ORGANOTELLURIUM AND SELENIUM-BASED ANTIMICROBIAL FORMULATIONS AND ARTICLES” (Andover Healthcare, Inc., priority 2006, published 2008)
# Where a name gives a salt, the structure may show the parent alone.
# System: Methicillin-Resistant Staphylococcus aureus (MRSa) ATCC 33592
# Assay: Time-kill (rate-of-kill) suspension assay against MRSa
# Type: cell-based
# Source text: Analyzing the efficacy of antimicrobial agents may be performed by various suspension and susceptibility methods. This study is designed to examine the rate-of-kill of a test substance against sponsor selected pure cultures of microorganisms. This is accomplished by exposing the target microorganism(s) to the test substance and inspecting the solution for potential survivors at various time periods. The experimental design in this protocol meets these requirements.
# A suspension of bacterial cells is exposed to the test substance for specified contact times. After exposure, an aliquot of the suspension is transferred to a neutralizer and assayed for survivors. Appropriate purity, sterility, microorganism population and neutralization controls are performed.
# Using a stock culture of the test organism, a culture of the test organism was struck onto the culture medium listed above. The bacterial cultures were incubated for 24-48 hours at 35-37° C. (alternate incubation may be utilized for certain strains). To produce a suspension containing approximately 1×10^8-1×10^9 CFU/mL, the culture suspension was adjusted with Butterfield's Buffer to yield a suspension matching a 0.5 McFarland turbidity standard.
# The test substance to be tested was prepared by transferring a 5.95 mL aliquot of the prepared test substance to a sterile vessel for testing procedures. The test substances were assayed for microbial killing activity within 3 hours of preparation.
# A […] aliquot of the standardized inoculum was added to the test substance representing the start of the test exposure (time=0 hr). The inoculated test substance was immediately mixed thoroughly using a laboratory vortex mixer or other applicable method. The inoculated and mixed test substance was held at the specified temperature.
# A 1.0 mL aliquot of the inoculated test substance was transferred to 9 mL of neutralizer broth (10× dilution) at each of the times indicated. Four additional 1:10 dilutions in Butterfield's Buffer were also prepared. Using a standard microbiological spread plate count procedure, 1.0 mL aliquots of each dilution (10^−1-10^−4) were plated in duplicate to the appropriate recovery media.
# A 5.0 mL aliquot of the neutralized sample (10× dilution) was transferred to a sterile 0.2-0.45 μm filter apparatus system pre-wetted with 10 mL sterile diluent. The sample was filter concentrated and the filter was rinsed using ≧50 mL sterile diluent. The filter was then aseptically removed and placed on the surface of the recovery agar medium to determine the percent MRSa survival.
# The bacterial subculture plates were incubated for 48±4 hours at 35-37° C. Subculture plates may be refrigerated at 2-8° C. for ≦3 days prior to examination without affecting the results. Following incubation, the subculture tubes and plates were visually examined for growth. The agar plates were enumerated and recorded. Log and percent reductions will be determined for each time point.
# As a control for the viability of the test organism, an equivalent volume of untreated inoculum (0.1 mL) is added to 9.9 mL Butterfield's Buffer (same volume as the test substance). This suspension was neutralized as in the test procedure. The suspension was serially diluted and appropriate dilutions plated using standard microbiological techniques. […] The acceptance criteria for this study control is growth and the value is used for calculation purposes.
# Test Data CFU/mL: (avg. # colonies found/plate @ dilution used) (dilution factor) (volume of neutralized solution)/(volume plated) Percent Reduction: [1−(test survivors/test population control)]×100 Log10 Reduction: Log10 (test population control)—Log10 (test survivors) Further details of the microbial time-killing studies can be found in: • 1. American Society for Testing and Materials (ASTM). E2315-03, Guide for Assessment of Microbiocidal Activity Using a Time-Kill Procedure, Volume 11.05, Copyright 2005 ASTM International; and • 2. Food and Drug Administration. […]
# [1] = 2 hour exposure, room temperature (20° C.), Agent 4 dissolved in DMSO, tested at 1, 10, and 100 mM
# [2] = 4 hour exposure, room temperature (20° C.), Agent 4 dissolved in DMSO, tested at 1, 10, and 100 mM
# [3] = 6 hour exposure, room temperature (20° C.), Agent 4 dissolved in DMSO, tested at 1, 10, and 100 mM
# [4] = 2 hour exposure, room temperature (20° C.), Agent 1 at 82 mM, Agent 2 at 41 mM, Agent 3 at 47 mM, dihydrochloride
# [5] = 4 hour exposure, room temperature (20° C.), Agent 1 at 82 mM, Agent 2 at 41 mM, Agent 3 at 47 mM, dihydrochloride
# [6] = 6 hour exposure, room temperature (20° C.), Agent 1 at 82 mM, Agent 2 at 41 mM, Agent 3 at 47 mM, dihydrochloride
# [7] = 2 hour exposure, room temperature (20° C.), Agent 1 at 82 mM, Agent 2 at 41 mM, Agent 3 at 47 mM, 1.13×10^6 CFU/mL
# [8] = 4 hour exposure, room temperature (20° C.), Agent 1 at 82 mM, Agent 2 at 41 mM, Agent 3 at 47 mM
# [9] = 6 hour exposure, room temperature (20° C.), Agent 1 at 82 mM, Agent 2 at 41 mM, Agent 3 at 47 mM
smiles,measurement,setting,value
C=C(C)C(=O)OCC[Se]C#N [2-selenocyanatoethyl methacrylate],log10 reduction of MRSa,[1],> 4.1 log10
same,reduction of MRSa,[1],> 99.9%
same,log10 reduction of MRSa,[2],> 4.1 log10
same,reduction of MRSa,[2],> 99.9%
same,log10 reduction of MRSa,[3],> 4.1 log10
same,reduction of MRSa,[3],> 99.9%
"NCC[Se][Se]CCN [Agent 1, selenocystamine dihydrochloride]",reduction of MRSa,"2 hour exposure, room temperature (20° C.), Agent 1 at 82 mM, Agent 2 at 41 mM, Agent 3 at 47 mM, 1.13×10^6 CFU/mL, dihydrochloride",51.3%
same,log10 reduction of MRSa,[4],0.31 log10
same,log10 reduction of MRSa,[5],0.54 log10
same,reduction of MRSa,[5],71.7%
same,log10 reduction of MRSa,[6],1.004 log10
same,reduction of MRSa,[6],90.1%
"NCC[Se][Se]CCN [Agent 2, selenocystamine dihydrochloride, reference compound]",reduction of MRSa,[7],95.5%
same,log10 reduction of MRSa,[4],1.34 log10
same,log10 reduction of MRSa,[5],1.946 log10
same,reduction of MRSa,[5],98.9%
same,log10 reduction of MRSa,[6],2.024 log10
same,reduction of MRSa,[6],99.1%
"NCC[Te]CCN [Agent 3, 2,2′-tellurodiethanamine 2 HCl]",log10 reduction of MRSa,"2 hour exposure, room temperature (20° C.), Agent 1 at 82 mM, Agent 2 at 41 mM, Agent 3 at 47 mM",3.4 log10
same,reduction of MRSa,[7],> 99.9%
same,log10 reduction of MRSa,[8],> 4.1 log10
same,reduction of MRSa,[8],> 99.9%
same,log10 reduction of MRSa,[9],> 4.1 log10
same,reduction of MRSa,[9],> 99.9%
"O=[Te]([O-])[O-].[K+].[K+] [Test Substance 1, Potassium tellurite, reference compound]",reduction of MRSa,"all time points (exposure times of 2, 4 and 6 hours), starting ~3-4×10^6 CFU/mL MRSA ATCC 33592",very little to no reduction
